According to BigSolDB 2.1:

## O=C(O)c1ccc(-c2ccc(C(=O)O)o2)o1
In DMAc, 298.15 K
  solubility (mole fraction): 0.0166
In DMAc, 303.15 K
  solubility (mole fraction): 0.0208
In DMAc, 313.15 K
  solubility (mole fraction): 0.0283
In DMAc, 323.15 K
  solubility (mole fraction): 0.0499
In DMAc, 333.15 K
  solubility (mole fraction): 0.0555
In DMAc, 343.15 K
  solubility (mole fraction): 0.0807
In DMSO, 298.15 K
  solubility (mole fraction): 0.00768
In DMSO, 303.15 K
  solubility (mole fraction): 0.00984
In DMSO, 313.15 K
  solubility (mole fraction): 0.017
In DMSO, 323.15 K
  solubility (mole fraction): 0.0282
In DMSO, 333.15 K
  solubility (mole fraction): 0.0412
In DMSO, 343.15 K
  solubility (mole fraction): 0.0728
In acetic acid, 298.15 K
  solubility (mole fraction): 8.11e-06
In acetic acid, 303.15 K
  solubility (mole fraction): 1.13e-05
In acetic acid, 313.15 K
  solubility (mole fraction): 2.35e-05
In acetic acid, 323.15 K
  solubility (mole fraction): 3.38e-05
In acetic acid, 333.15 K
  solubility (mole fraction): 6.79e-05
In acetic acid, 343.15 K
  solubility (mole fraction): 0.000112
In acetic acid, 353.15 K
  solubility (mole fraction): 0.000214
In acetonitrile, 298.15 K
  solubility (mole fraction): 1.73e-06
In acetonitrile, 303.15 K
  solubility (mole fraction): 2.2e-06
In acetonitrile, 313.15 K
  solubility (mole fraction): 3.47e-06
In acetonitrile, 323.15 K
  solubility (mole fraction): 5.31e-06
In acetonitrile, 333.15 K
  solubility (mole fraction): 7.91e-06
In acetonitrile, 343.15 K
  solubility (mole fraction): 1.15e-05
In acetonitrile, 353.15 K
  solubility (mole fraction): 1.58e-05
In acetonitrile, 363.15 K
  solubility (mole fraction): 2.12e-05
In isopropanol, 298.15 K
  solubility (mole fraction): 0.0001
In isopropanol, 303.15 K
  solubility (mole fraction): 0.000106
In isopropanol, 313.15 K
  solubility (mole fraction): 0.000154
In isopropanol, 323.15 K
  solubility (mole fraction): 0.000223
In isopropanol, 333.15 K
  solubility (mole fraction): 0.000284
In isopropanol, 343.15 K
  solubility (mole fraction): 0.000592
In isopropanol, 353.15 K
  solubility (mole fraction): 0.00116
In isopropanol, 363.15 K
  solubility (mole fraction): 0.0014
In methanol, 298.15 K
  solubility (mole fraction): 0.000331
In methanol, 303.15 K
  solubility (mole fraction): 0.000393
In methanol, 313.15 K
  solubility (mole fraction): 0.000464
In methanol, 323.15 K
  solubility (mole fraction): 0.000574
In methanol, 333.15 K
  solubility (mole fraction): 0.000702
In methanol, 343.15 K
  solubility (mole fraction): 0.00109
In n-pentanol, 298.15 K
  solubility (mole fraction): 0.000146
In n-pentanol, 303.15 K
  solubility (mole fraction): 0.000154
In n-pentanol, 323.15 K
  solubility (mole fraction): 0.000148
In n-pentanol, 333.15 K
  solubility (mole fraction): 0.000214
In n-pentanol, 343.15 K
  solubility (mole fraction): 0.000412
In n-pentanol, 353.15 K
  solubility (mole fraction): 0.000757
In n-pentanol, 363.15 K
  solubility (mole fraction): 0.00144
In water, 298.15 K
  solubility (mole fraction): 9.64e-07
In water, 303.15 K
  solubility (mole fraction): 1.31e-06
In water, 313.15 K
  solubility (mole fraction): 1.97e-06
In water, 323.15 K
  solubility (mole fraction): 2.55e-06
In water, 333.15 K
  solubility (mole fraction): 3.75e-06
In water, 343.15 K
  solubility (mole fraction): 4.84e-06
In water, 353.15 K
  solubility (mole fraction): 7.43e-06
In water, 363.15 K
  solubility (mole fraction): 9.09e-06
